Legend:
[1] = Cytotoxicity against human KB/VCR cells assessed as inhibition of cell proliferation at 20 uM measured after 72 hrs by CCK8 assay relative to control; type: cell-based
[2] = Cytotoxicity against human KB/VCR cells assessed as inhibition of cell proliferation at 2 uM measured after 72 hrs by CCK8 assay relative to control; type: cell-based

Compound	inhibition at 72 h, 20 µM [1]	inhibition at 72 h, 2 µM [2]
CC(=O)OC[C@]12[C@H](OC(C)=O)C(=O)[C@@H]3[C@@H](OC(C)=O)[C@]1(OC3(C)C)[C@H](C)[C@@H](O)[C@H](OC(C)=O)[C@@H]2OC(C)=O	9.2%	-5.3%
CC(=O)O[C@H]1C[C@@H](C)[C@]23OC(C)(C)[C@H](C[C@H](OC(=O)c4ccccc4)[C@@]2(C)[C@@H]1OC(C)=O)[C@H]3OC(=O)c1ccccc1	57.9%	0%
CC(=O)O[C@H]1[C@@H]2[C@@H](OC(=O)/C=C/c3ccccc3)[C@]3(OC2(C)C)[C@H](C)C[C@H](O)[C@H](OC(C)=O)[C@@]3(C)[C@H]1OC(=O)c1ccccc1	76.9%	-20.3%
CC(=O)OC[C@]12[C@H](OC(C)=O)C(=O)[C@@H]3[C@@H](OC(C)=O)[C@]1(OC3(C)C)[C@H](C)C[C@H](O)[C@@H]2OC(C)=O	2.6%	-2%
CCCCCC(=O)O[C@@H]1[C@@H]2[C@@H](OC(C)=O)[C@]3(OC2(C)C)[C@H](C)C[C@@H](OC(C)=O)[C@H](OC(C)=O)[C@@]3(C)[C@H]1OC(=O)c1ccccc1	-1.9%	-3.1%
CC(=O)OC[C@]12[C@H](OC(C)=O)C(=O)[C@@H]3[C@@H](O)[C@]1(OC3(C)C)[C@H](C)[C@@H](OC(C)=O)[C@H](OC(C)=O)[C@@H]2OC(C)=O	2.6%	1.6%
CC(=O)O[C@@H]1C[C@@H](C)[C@]23OC(C)(C)[C@H]([C@@H](O)[C@H](OC(=O)c4ccccc4)[C@@]2(C)[C@H]1OC(C)=O)[C@H]3OC(=O)/C=C/c1ccccc1	78.7%	3.3%
COc1cc2c(cc1OC)CN(CCc1ccc(-n3nnc(-c4cc(OC)c(OC)cc4NC(=O)c4cc(=O)c5ccccc5o4)n3)cc1)CC2		23.1%
CC(=O)O[C@H]1[C@@H]2[C@@H](OC(=O)/C=C/c3ccccc3)[C@]3(OC2(C)C)[C@H](C)C[C@@H](OC(C)=O)[C@H](OC(C)=O)[C@@]3(C)[C@H]1OC(=O)c1ccccc1	-3%	-0.6%
CC(=O)OC[C@]12[C@H](OC(C)=O)C(=O)[C@@H]3[C@@H](O)[C@]1(OC3(C)C)[C@H](C)[C@@H](O)[C@H](OC(C)=O)[C@@H]2OC(C)=O	1.5%	-0.5%
CC(=O)O[C@@H]1[C@@H]2[C@@H](OC(C)=O)[C@]3(OC2(C)C)[C@H](C)CC[C@H](OC(C)=O)[C@@]3(C)[C@@H]1OC(=O)c1ccccc1	2.4%	1.6%
CC(=O)O[C@H]1[C@@H]2[C@@H](OC(C)=O)[C@]3(OC2(C)C)[C@H](C)C[C@@H](OC(C)=O)[C@H](OC(C)=O)[C@@]3(C)[C@H]1OC(=O)c1ccccc1	-2%	-1.2%
CC(=O)O[C@@H]1C[C@@H](C)[C@]23OC(C)(C)[C@H](C[C@H](OC(=O)c4ccccc4)[C@]2(C)[C@H]1OC(C)=O)[C@H]3OC(=O)/C=C/c1ccccc1	81.8%	-5.3%
CC(=O)O[C@@H]1[C@@H]2[C@@H](OC(C)=O)[C@]3(OC2(C)C)[C@H](C)CC[C@H](OC(C)=O)[C@@]3(C)[C@H]1OC(=O)c1ccccc1	3.2%	2.4%
CC(=O)O[C@H]1CC[C@@H](C)[C@]23OC(C)(C)[C@H](C[C@H](OC(=O)c4ccccc4)[C@]12C)[C@H]3OC(=O)c1ccccc1	77.9%	-1.8%
CC(=O)O[C@@H]1[C@H]2[C@H](O)[C@H](OC(=O)c3ccccc3)[C@]3(C)[C@@H](OC(C)=O)[C@H](O)C[C@@H](C)[C@@]13OC2(C)C	-2.1%	-1.9%
CC(=O)O[C@@H]1[C@@H]2[C@@H](OC(C)=O)[C@]3(OC2(C)C)[C@H](C)C[C@H](OC(=O)/C=C/c2ccccc2)[C@H](OC(C)=O)[C@@]3(C)[C@@H]1OC(=O)c1ccccc1	-12.8%	0.7%
CC(=O)O[C@H]1CC[C@@H](C)[C@]23OC(C)(C)[C@H](C[C@H](OC(=O)c4ccccc4)[C@]12C)[C@H]3OC(C)=O	0.7%	-1.1%
CC(=O)O[C@H]1[C@@H]2[C@@H](OC(=O)c3cccnc3)[C@]3(OC2(C)C)[C@H](C)C[C@H](OC(C)=O)[C@@H](OC(C)=O)[C@@]3(C)[C@H]1OC(=O)c1ccccc1	-6.7%	-3%
CC(=O)O[C@@H]1[C@@H]2[C@@H](OC(C)=O)[C@]3(OC2(C)C)[C@H](C)C[C@@H](OC(C)=O)[C@H](OC(C)=O)[C@@]3(C)[C@@H]1OC(=O)c1ccccc1	-1.5%	2.7%

Reference: ChEMBL document CHEMBL4811234, “Dihydro-β-agarofuran-Type Sesquiterpenoids from the Seeds of Celastrus virens and Their Multidrug Resistance Reversal Activity against the KB/VCR Cell Line” (J Nat Prod, 2021)
